Source: ChEMBL document CHEMBL4043136, “Chiral-pool synthesis of 1,2,4-trisubstituted 1,4-diazepanes as novel σ1 receptor ligands” (Bioorg Med Chem, 2017)
Calls of active or inactive are those of the source. The calls are words filed in the database; no cut-off is given here.

Tests used:
[1] = organism: Homo sapiens; assay: Displacement of [3H]-CGP-54626 from […] GABAB receptor (unknown origin) at 1 uM
[2] = target: Epidermal growth factor receptor (Homo sapiens) (UniProt P00533); assay: Displacement of [125I]-EGF from EGF receptor (unknown origin) at 1 uM
Sequence of Epidermal growth factor receptor (Homo sapiens) (P00533 whole entry): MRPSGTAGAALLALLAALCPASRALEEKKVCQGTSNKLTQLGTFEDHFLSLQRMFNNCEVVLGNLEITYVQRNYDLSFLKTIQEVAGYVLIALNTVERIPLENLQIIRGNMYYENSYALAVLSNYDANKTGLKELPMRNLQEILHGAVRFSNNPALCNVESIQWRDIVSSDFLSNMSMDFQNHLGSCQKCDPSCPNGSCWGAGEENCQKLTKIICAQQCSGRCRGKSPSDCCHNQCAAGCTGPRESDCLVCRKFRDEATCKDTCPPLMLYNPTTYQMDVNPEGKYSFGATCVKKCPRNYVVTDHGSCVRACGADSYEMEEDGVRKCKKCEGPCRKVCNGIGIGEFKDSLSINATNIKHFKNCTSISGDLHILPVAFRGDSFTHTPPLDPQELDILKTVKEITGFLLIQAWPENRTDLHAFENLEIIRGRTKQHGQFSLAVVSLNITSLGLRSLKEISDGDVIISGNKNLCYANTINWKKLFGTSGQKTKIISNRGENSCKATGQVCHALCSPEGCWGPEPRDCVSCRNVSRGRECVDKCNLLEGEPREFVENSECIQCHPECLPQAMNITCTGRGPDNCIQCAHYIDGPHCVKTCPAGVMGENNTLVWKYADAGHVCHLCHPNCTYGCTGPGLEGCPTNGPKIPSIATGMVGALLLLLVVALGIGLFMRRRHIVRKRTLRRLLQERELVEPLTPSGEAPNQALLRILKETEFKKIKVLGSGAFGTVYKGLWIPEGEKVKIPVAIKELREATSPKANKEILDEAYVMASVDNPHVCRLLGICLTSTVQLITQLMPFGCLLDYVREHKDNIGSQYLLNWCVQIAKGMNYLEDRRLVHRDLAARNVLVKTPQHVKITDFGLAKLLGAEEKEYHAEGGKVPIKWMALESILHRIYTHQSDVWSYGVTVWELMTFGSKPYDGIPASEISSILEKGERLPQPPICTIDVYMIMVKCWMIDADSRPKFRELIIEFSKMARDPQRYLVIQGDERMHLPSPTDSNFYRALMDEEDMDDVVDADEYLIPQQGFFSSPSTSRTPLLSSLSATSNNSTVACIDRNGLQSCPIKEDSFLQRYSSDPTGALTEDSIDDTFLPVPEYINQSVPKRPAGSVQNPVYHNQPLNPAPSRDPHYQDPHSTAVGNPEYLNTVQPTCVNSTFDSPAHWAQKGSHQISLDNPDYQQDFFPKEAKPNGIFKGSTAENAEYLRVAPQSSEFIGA

[3] = target: Histamine H3 receptor (Homo sapiens) (UniProt Q9Y5N1); assay: Displacement of [3H]-R(-)-alpha-methylhistamine from histamine H3 receptor (unknown origin) at 1 uM
[4] = target: D(1A) dopamine receptor (Homo sapiens) (UniProt P21728); assay: Displacement of [3H]-SCH-23390 from dopamine D1 receptor (unknown origin) at 1 uM
Sequence of D(1A) dopamine receptor (Homo sapiens) (P21728 whole entry): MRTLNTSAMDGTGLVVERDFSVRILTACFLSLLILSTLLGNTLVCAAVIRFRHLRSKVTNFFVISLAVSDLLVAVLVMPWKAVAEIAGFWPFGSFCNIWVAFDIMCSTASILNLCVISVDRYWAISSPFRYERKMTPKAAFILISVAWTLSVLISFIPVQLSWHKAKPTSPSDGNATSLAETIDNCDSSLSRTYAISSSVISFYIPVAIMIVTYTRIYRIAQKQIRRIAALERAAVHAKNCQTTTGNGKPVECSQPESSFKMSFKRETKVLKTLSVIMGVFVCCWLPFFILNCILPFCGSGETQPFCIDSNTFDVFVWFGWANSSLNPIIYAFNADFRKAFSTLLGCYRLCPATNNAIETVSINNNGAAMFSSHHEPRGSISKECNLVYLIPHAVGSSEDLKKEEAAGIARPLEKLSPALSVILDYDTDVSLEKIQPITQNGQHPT

[5] = organism: Homo sapiens; assay: Displacement of [3H]-Idazoxan from imidazoline I2 receptor (unknown origin) at 1 uM
[6] = organism: Homo sapiens; assay: Displacement of [3H]-muscimol from […] GABAA receptor (unknown origin) at 1 uM
[7] = target: T1, Glutamate [NMDA] receptor (Homo sapiens) (UniProt Q05586+Q12879+Q13224+O15399+O60391+Q14957+Q8TCU5); assay: Displacement of [3H]-MDL-105519 from glutamate NMDA receptor glycine binding site (unknown origin) at 1 uM
[8] = system: Mus musculus; assay: Cognition enhancing effect in mouse assessed as reversal of scopolamine-induced amnesia at 30 mg/kg, ip; assay type: functional, organism-based
[9] = target: Sigma non-opioid intracellular receptor 1 (Cavia porcellus, UniProt Q60492); assay: Displacement of [3H]-pentazocine from sigma1 receptor in guinea pig brain membranes after 120 mins by liquid scintillation counting; assay type: cell membranes, Membrane
Sequence of Sigma non-opioid intracellular receptor 1 (Q60492 whole entry): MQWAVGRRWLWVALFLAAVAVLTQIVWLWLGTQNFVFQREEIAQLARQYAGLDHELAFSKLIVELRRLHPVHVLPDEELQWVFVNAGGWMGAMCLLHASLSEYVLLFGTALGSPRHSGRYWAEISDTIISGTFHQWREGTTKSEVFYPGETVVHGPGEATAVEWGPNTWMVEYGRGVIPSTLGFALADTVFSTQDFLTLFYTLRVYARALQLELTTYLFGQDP

[10] = target: Gastrin-releasing peptide receptor (Homo sapiens) (UniProt P30550); assay: Displacement of [125I]-(Tyr4)-bombesin from bombesin BB2 receptor (unknown origin) at 1 uM
Sequence of Gastrin-releasing peptide receptor (Homo sapiens) (P30550 whole entry, looked up): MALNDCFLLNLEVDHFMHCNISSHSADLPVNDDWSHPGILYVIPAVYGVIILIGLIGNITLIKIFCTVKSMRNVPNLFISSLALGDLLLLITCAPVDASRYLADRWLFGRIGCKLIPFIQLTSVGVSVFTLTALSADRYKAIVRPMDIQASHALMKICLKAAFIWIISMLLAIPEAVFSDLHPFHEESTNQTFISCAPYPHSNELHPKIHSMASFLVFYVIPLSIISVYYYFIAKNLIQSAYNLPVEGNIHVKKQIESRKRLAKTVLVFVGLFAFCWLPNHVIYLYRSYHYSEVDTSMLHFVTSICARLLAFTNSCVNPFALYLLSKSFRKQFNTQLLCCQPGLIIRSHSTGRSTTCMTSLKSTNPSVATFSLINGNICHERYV

[11] = target: Delta-type opioid receptor (Homo sapiens) (UniProt P41143); assay: Displacement of [3H]-naltrindole from delta opioid receptor (unknown origin) at 1 uM
Sequence of Delta-type opioid receptor (Homo sapiens) (P41143 whole entry): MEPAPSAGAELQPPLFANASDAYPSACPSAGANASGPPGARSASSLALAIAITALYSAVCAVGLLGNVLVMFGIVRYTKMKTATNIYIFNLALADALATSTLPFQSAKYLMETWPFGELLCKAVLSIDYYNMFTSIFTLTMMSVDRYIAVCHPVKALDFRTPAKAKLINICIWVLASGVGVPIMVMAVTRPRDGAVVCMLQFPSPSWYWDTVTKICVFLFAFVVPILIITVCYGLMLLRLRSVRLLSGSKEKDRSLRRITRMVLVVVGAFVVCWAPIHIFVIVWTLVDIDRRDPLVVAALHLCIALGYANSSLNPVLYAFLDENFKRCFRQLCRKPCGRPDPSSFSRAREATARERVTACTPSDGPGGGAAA

[12] = target: Endothelin receptor type B (Homo sapiens) (UniProt P24530); assay: Displacement of [125I]-endothelin-1 from endothelin ETB receptor (unknown origin) at 1 uM
Sequence of Endothelin receptor type B (Homo sapiens) (P24530 whole entry): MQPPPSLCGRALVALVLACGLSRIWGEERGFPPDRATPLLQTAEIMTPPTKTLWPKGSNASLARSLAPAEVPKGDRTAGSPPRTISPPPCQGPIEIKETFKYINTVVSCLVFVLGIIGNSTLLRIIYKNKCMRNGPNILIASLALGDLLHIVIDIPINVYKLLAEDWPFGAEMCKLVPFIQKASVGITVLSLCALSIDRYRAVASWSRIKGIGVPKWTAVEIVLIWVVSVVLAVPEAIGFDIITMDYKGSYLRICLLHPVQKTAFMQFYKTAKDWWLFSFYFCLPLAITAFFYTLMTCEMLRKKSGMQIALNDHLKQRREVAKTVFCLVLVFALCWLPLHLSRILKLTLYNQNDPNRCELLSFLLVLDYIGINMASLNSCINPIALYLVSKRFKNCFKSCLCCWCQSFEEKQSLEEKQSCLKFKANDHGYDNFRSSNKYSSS

[13] = system: Mus musculus; assay: Toxicity in mouse assessed as diarrhea at 100 mg/kg, ip by Irwin test; assay type: organism-based; conditions: in vivo
[14] = target: C-C chemokine receptor type 4 (Homo sapiens) (UniProt P51679); assay: Displacement of [125I]-TARC from CCR4 receptor (unknown origin) at 1 uM
[15] = target: CYP2C19 (Homo sapiens, UniProt P33261); assay: Inhibition on CYP2C19 (unknown origin) at 1 uM; assay type: ADME
[16] = target: Histamine H2 receptor (Homo sapiens, UniProt P25021); assay: Displacement of [125I]-aminopotentidine receptor from histamine H2 receptor (unknown origin) at 1 uM
Sequence of Histamine H2 receptor (P25021 whole entry): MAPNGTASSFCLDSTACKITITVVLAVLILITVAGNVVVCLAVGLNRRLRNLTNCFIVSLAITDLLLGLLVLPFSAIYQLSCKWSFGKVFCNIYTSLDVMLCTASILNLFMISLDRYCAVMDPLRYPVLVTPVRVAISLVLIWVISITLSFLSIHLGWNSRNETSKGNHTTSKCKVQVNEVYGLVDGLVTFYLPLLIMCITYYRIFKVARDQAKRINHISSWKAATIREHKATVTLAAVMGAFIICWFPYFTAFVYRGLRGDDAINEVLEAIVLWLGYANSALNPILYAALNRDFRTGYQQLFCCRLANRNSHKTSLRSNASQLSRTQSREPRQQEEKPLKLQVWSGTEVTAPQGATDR

[17] = organism: Homo sapiens; assay: Displacement of [3H]-alpha-5-methylene-ATP from purinergic P2x receptor (unknown origin) at 1 uM
[18] = target: Muscarinic acetylcholine receptor M3 (Homo sapiens) (UniProt P20309); assay: Displacement of [3H]-N-methylscopolamine from muscarinic M3 receptor (unknown origin) at 1 uM
Sequence of Muscarinic acetylcholine receptor M3 (Homo sapiens) (P20309 whole entry, looked up): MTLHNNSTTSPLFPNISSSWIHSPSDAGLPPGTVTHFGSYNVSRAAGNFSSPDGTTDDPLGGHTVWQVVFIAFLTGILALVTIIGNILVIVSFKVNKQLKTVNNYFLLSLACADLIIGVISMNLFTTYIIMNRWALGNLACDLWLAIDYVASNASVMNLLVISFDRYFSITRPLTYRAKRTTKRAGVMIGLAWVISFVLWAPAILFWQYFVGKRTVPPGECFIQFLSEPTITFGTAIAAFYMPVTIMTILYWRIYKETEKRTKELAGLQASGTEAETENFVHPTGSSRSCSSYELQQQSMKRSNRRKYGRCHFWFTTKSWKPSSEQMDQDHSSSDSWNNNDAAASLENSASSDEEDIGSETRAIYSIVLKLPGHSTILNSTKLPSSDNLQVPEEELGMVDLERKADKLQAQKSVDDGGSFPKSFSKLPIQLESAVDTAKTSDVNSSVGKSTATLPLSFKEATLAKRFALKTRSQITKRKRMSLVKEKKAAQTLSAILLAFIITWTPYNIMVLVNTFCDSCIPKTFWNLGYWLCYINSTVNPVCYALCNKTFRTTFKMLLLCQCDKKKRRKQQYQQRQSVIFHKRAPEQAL

[19] = organism: Homo sapiens; assay: Displacement of [125I]-epibatidine from nicotinic acetylcholine receptor (unknown origin) at 1 uM
[20] = system: Mus musculus; assay: Toxicity in mouse assessed as increase in abdominal tone at 100 mg/kg, ip by Irwin test; assay type: organism-based; conditions: in vivo
[21] = target: Sigma non-opioid intracellular receptor 1 (Cavia porcellus) (UniProt Q60492); assay: Agonist activity at sigma1 receptor assessed as potentiation of electrically stimulated contractions of the guinea pig vas deferens relative to (S)-3-PPP
Sequence of Sigma non-opioid intracellular receptor 1 (Cavia porcellus) (Q60492 whole entry): as the sequence (Q60492 whole entry) above

[22] = target: Muscarinic acetylcholine receptor M2 (Homo sapiens) (UniProt P08172); assay: Displacement of [3H]-N-methylscopolamine from muscarinic M2 receptor (unknown origin) at 1 uM
Sequence of Muscarinic acetylcholine receptor M2 (Homo sapiens) (P08172 whole entry): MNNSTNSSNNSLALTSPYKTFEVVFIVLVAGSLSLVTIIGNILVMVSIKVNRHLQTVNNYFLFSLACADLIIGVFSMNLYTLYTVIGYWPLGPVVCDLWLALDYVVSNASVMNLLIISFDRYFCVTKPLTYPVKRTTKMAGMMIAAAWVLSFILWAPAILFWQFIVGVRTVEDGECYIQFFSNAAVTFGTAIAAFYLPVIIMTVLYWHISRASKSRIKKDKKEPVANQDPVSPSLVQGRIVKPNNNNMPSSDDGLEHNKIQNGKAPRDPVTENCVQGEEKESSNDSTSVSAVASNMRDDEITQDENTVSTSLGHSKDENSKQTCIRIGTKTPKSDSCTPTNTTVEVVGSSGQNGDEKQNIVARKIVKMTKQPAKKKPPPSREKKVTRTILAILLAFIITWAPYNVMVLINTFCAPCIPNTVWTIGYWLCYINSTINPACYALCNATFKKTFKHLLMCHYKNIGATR

[23] = target: Neuropeptide Y receptor type 2 (Homo sapiens) (UniProt P49146); assay: Displacement of [125I]-Peptide YY from neuropeptide Y Y2 receptor (unknown origin) at 1 uM
[24] = organism: Homo sapiens; assay: Displacement of [3H]-CGP-39653 from glutamate […] receptor (unknown origin) at 1 uM
[25] = target: T2, Sigma intracellular receptor 2 (Rattus norvegicus, UniProt Q5U3Y7); assay: Displacement of [3H]-DTG from sigma2 receptor in rat liver membranes after 120 mins by liquid scintillation counting; assay type: cell membranes, Membrane
T2 sequence (Q5U3Y7 whole entry): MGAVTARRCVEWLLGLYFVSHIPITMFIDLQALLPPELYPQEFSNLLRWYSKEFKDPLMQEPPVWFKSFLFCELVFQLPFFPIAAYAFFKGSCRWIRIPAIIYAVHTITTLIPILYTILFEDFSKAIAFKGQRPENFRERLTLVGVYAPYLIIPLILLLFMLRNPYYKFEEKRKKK

[26] = target: T1, Glutamate [NMDA] receptor (Homo sapiens); assay: Displacement of [3H]-TCP from glutamate NMDA receptor phencyclidine binding site (unknown origin) at 1 uM
[27] = Metabolic stability in rat microsomes assessed as amount of parent compound remaining after 5 mins; assay type: ADME, Microsome; conditions: read-out: Stability
[28] = target: Kappa-type opioid receptor (Homo sapiens) (UniProt P41145); assay: Displacement of [3H]-d iprenorphine from kappa opioid receptor (unknown origin) at 1 uM
[29] = target: 5-hydroxytryptamine receptor 1A (Homo sapiens) (UniProt P08908); assay: Displacement of [3H]-8-OH-DPAT from 5-HT1A receptor (unknown origin) at 1 uM
Sequence of 5-hydroxytryptamine receptor 1A (Homo sapiens) (P08908 whole entry): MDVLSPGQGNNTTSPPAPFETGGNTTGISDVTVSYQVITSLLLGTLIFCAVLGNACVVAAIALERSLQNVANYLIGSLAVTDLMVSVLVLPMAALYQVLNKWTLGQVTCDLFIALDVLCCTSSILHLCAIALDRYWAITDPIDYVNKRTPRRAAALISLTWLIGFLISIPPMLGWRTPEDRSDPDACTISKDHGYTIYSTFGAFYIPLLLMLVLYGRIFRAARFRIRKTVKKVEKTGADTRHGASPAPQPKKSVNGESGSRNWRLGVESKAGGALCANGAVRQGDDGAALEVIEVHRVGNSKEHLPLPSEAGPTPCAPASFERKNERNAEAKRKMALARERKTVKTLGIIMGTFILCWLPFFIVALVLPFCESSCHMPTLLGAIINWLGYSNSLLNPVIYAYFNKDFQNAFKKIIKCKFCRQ

[30] = target: Melanocortin receptor 3 (Homo sapiens) (UniProt P41968); assay: Displacement of [125I]-NDP-alpha-MSH from melanocortin MC3 receptor (unknown origin) at 1 uM
[31] = target: CYP2D6 (Homo sapiens, UniProt P10635); assay: Inhibition on CYP2D6 (unknown origin) at 1 uM; assay type: ADME
[32] = target: CYP2C9 (Homo sapiens, UniProt P11712); assay: Inhibition on CYP2C9 (unknown origin) at 1 uM; assay type: ADME

inhibition [1]: inactive
inhibition [2]: inactive
inhibition [3]: inactive
inhibition [4]: inactive
inhibition [5]: inactive
inhibition [6]: inactive
inhibition [7]: inactive
Ki [9]: 0.86 nM
inhibition [10]: inactive
inhibition [11]: inactive
inhibition [12]: inactive
inhibition [14]: inactive
inhibition at 1 µM [15]: 38%
inhibition [16]: 50%
inhibition [17]: inactive
inhibition [18]: inactive
inhibition [19]: inactive
Activity [21]: Dose-dependent effect
inhibition [22]: inactive
inhibition [23]: inactive
inhibition [24]: inactive
Ki [25]: 46 nM
inhibition [26]: inactive
remaining at 5 min [27]: < 50%
inhibition [28]: inactive
inhibition [29]: inactive
inhibition [30]: inactive
inhibition at 1 µM [31]: 60%
inhibition at 1 µM [32]: 0%
SMILES: COc1ccc(CN2CCCN(Cc3ccccc3)[C@@H](C)C2)cc1
Activity [8]: Active
Activity [13]: Toxic
Activity [20]: Toxic
